Assay results from US6365602B1, “N-substituted naphthalene carboxamides as neurokinin-receptor antagonists” (Astra Zeneca AB, priority 1998, dated 2002).
Counter-ions that a name gives are not always drawn.

Key:
[1] = target: T1, NK1 receptors (Cavia porcellus, UniProt P30547); assay: NK1 in vivo functional assay (Test F), ASMSP-induced bronchoconstriction; conditions: anesthetized guinea pig, agonist ASMSP, Dose Ratio of ED50 in presence/absence of antagonist
T1 construct: from tissue; host or cells: whole anesthetized guinea pig (airways, in vivo)
Protocol: (§1) NK1 and NK2 in vivo functional assay (Test F)
(§2) Exp. Ther., 1993, Vol 267(3), pp 1168-1175. The assay is carried out as follows.
(§3) Compounds are tested in anesthetized guinea pigs pretreated with i.v. indomethacin (10 mg/kg, 20 min.), propranolol (0.5 mg/kg, 15 min.), and thiorphan (10 mg/kg, 10 min).
(§4) […] The agonists used in these studies are ASMSP (Ac-[Arg^6, Sar^9, Met(O2)^11]-SP(6-11)) and BANK (β-ala-8 NKA4-10).
(§5) Administered i.v., ASMSP is selective for NK1 receptors, and BANK is selective for NK2 receptors. Maximum response is defined as zero conductance (GL, 1/Rp). ED50 values are calculated (the dose of agonist resulting in a reduction of GL to 50% of baseline), and converted to the negative logarithm (−logED50). The ED50 values, obtained in the presence (P) and absence (A) of antagonist, are used to calculate a Dose Ratio (P/A), an expression of potency. Data are expressed as mean±SEM and statistical differences were determined using ANOVA/Tukey-Kramer and Student's t-test, with p<0.05 considered statistically significant.

[2] = target: T2, NK2 receptor (Oryctolagus cuniculus, UniProt P79218); assay: NK2 in vitro functional assay (Test E), rabbit pulmonary artery; format: cell-based; conditions: contraction to agonist BANK, negative log apparent dissociation constant, read-out: NK2pKb (converted)
T2 construct: Left and right pulmonary arteries are excised from male New Zealand white rabbits; from tissue; host or cells: rabbit pulmonary artery ring segments, endothelium removed
T2 sequence (P79218 1-384): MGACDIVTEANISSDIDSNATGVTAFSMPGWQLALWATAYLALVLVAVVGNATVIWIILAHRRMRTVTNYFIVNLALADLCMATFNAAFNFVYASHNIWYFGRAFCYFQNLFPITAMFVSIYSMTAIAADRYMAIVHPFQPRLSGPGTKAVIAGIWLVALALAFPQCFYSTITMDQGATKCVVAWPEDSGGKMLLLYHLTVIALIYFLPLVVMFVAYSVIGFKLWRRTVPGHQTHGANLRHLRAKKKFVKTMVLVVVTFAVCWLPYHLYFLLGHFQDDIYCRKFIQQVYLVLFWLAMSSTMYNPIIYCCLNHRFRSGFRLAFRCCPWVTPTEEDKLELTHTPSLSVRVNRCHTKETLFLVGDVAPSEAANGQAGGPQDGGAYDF
Description: NK2 in vitro functional assay (Test E)
The ability of a Compound of the invention to antagonize the action of the agonist [β-ala^8] […] Am. J. Physiol. […] Left and right pulmonary arteries are excised from male New Zealand white rabbits. The pulmonary arteries are cut into ring segments and the intimal surface rubbed gently to remove the endothelium. Paired tissue segments of pulmonary artery are suspended between stainless steel stirrups for analyses of isometric tension development under standard conditions in physiological salt solution (PSS) containing indomethacin, (5 microM; to inhibit cyclooxygenase).
Initial tension placed on each tissue is 2 grams, which is maintained throughout the 45 minute equilibration period. Tissues are washed with PSS at 15 minute intervals. After the 45 minute equilibration period, 3×10^−2M KCl is applied for 60 minutes to test tissue viability. The tissues are then washed extensively for 30 minutes. The concentration of the Compound being tested is then added for 30 minutes before constructing a cumulative concentration-response curve with BANK. The curve is considered complete when each tissue fails to contract further for 2 consecutively increasing BANK concentrations. BaCl2 (3×10^−2M ) is then added to produce a maximum reference contraction.
(§6) Percent inhibition is determined when a tested Compound produces a statistically significant reduction in the magnitude of maximum contraction and is calculated as a percentage of the BaCl2 reference response. For antagonists behaving competitively, potencies are determined by calculating the negative log value of the apparent dissociation constant (pKB) for each concentration tested. Statistical significance is determined when the P value is <0.05 using the Student's t-test for paired comparisons.
as §1

[3] = target: T3, NK1 receptor (Oryctolagus cuniculus, UniProt G1SEI7); assay: Rabbit Pulmonary Artery: NK1 in vitro functional assay (Test D); format: cell-based; conditions: relaxation to agonist ASMSP, negative log apparent dissociation constant, read-out: NK1pKb (converted)
T3 construct: Paired tissue segments of pulmonary artery excised from male New Zealand white rabbits; from tissue; host or cells: rabbit pulmonary artery segments
Description: Rabbit Pulmonary Artery: NK1 in vitro functional assay (Test D)
The ability of a Compound of the invention to antagonize the action of the agonist Ac-[Arg^6, Sar^9, Met(O2)^11] […] Am. J. Physiol. 268: L152-L159, 1995.
Paired tissue segments of pulmonary artery excised from male New Zealand white rabbits are suspended between stainless steel stirrups for analyses of isometric relaxation under standard conditions in physiological salt solution (PSS) containing indomethacin (5 microM; to block cyclooxygenase) and propranolol (1 microM; to block β adrenergic receptors).
Initial tension placed on each tissue is 2 grams, which is maintained throughout the 1.0 hour equilibration period. Tissues are washed with PSS at 15 minute intervals. At the 30 and 45 minute wash the following treatments are added: Thiorphan (1 microM; to block E.C.3.4.24.11), ((3R)-3-[(1S)-1-(3,4-Dichlorophenyl)-3-(4-[(R or S)-2-methylsulfinyl-phenyl]-piperidino)propyl]-2-ethyl-2,3-dihydroisoindol-1-one) (0.03 microM; to block NK^2 receptors as described in: “Aharony D., et al. Pharmacological Characterization of ZD7944: A Novel, Potent and orally-Active Non-Peptide Neurokinin-A (NK-2) Receptor Antagonist Eur. Respir. J. 12 (Suppl. 12):20S, 1998”), and the given concentration of the Compound being tested. After equilibration, phenylephrine (3 microM) is added to produce steady-state contraction of the tissue and a dose relaxation curve to ASMSP is constructed. […]
as §6, with “For antagonists behaving in a noncompetitive manner, the percent inhibition of relaxation is determined at a given concentration of the antagonist. Percent” for “Percent”, “reduction of” for “reduction in”, “maximum relaxation” for “maximum contraction”, “the papaverine” for “the BaCl2”, “reference response” for “reference response.”

[4] = target: T4, NK2 receptors (Cavia porcellus, UniProt Q64077); assay: NK2 in vivo functional assay (Test F), BANK-induced bronchoconstriction; conditions: anesthetized guinea pig, agonist BANK, Dose Ratio of ED50 in presence/absence of antagonist
T4 construct: from tissue; host or cells: whole anesthetized guinea pig (airways, in vivo)
T4 sequence (Q64077 1-402): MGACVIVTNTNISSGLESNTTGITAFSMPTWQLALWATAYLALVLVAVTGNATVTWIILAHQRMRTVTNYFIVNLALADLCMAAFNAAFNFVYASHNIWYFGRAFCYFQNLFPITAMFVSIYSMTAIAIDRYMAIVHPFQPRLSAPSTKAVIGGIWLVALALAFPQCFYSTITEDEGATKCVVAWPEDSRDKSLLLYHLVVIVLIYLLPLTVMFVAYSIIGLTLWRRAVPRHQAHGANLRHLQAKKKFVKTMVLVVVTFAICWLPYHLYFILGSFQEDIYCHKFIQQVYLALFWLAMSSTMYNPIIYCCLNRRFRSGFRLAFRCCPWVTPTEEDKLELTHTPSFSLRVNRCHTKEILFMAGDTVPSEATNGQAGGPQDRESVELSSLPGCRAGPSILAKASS
Protocol: as §1, §2, §3, §4, §5

T1 sequence (P30547 whole entry): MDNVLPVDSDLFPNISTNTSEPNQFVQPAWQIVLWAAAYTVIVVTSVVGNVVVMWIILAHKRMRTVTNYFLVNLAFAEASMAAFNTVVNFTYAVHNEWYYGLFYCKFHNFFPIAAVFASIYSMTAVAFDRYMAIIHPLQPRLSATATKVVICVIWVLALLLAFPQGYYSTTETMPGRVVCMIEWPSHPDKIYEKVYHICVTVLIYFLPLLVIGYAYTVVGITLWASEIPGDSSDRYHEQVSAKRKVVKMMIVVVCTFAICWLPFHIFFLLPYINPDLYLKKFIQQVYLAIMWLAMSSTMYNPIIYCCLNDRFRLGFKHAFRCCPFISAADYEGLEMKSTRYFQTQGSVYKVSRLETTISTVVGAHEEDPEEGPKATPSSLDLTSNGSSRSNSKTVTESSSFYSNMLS
T3 sequence (G1SEI7 1-407): as the sequence (P30547 whole entry) above, with G176S, S186E, A329G, F342L, D368E, P369A, T376N, V395M, S399F counted along it

| Structure (SMILES) | melting point | NK1 P/A ([1]; 2 hr) | Kd [2] [nM] | Kd [3] [nM] | NK2 P/A ([4]; 2 hr) | NK1 P/A ([1]; 1 hr) | NK2 P/A ([4]; 1 hr) |
| --- | --- | --- | --- | --- | --- | --- | --- |
| CN(C[C@@H](CCN1CCC(c2ccc([S+](C)[O-])c(F)c2)CC1)c1ccc(Cl)c(Cl)c1)C(=O)c1cc(C#N)cc2ccccc12 (stereo partly drawn) (as salt: hydrochloride) [Example 60, N-[(S)-2-(3,4-Dichlorophenyl)-4-[4-[3-fluoro-4-methylsulfinylphenyl]-1-piperidinyl]butyl]-N-methyl-3-cyano-1-naphthamide] | 175 to 180 °C |  |  |  |  |  |  |
| CN(C[C@@H](CCN1CCC(c2ccccc2[S@+](C)[O-])CC1)c1ccc(Cl)c(Cl)c1)C(=O)c1cc(C#N)cc2ccccc12 [Example 1, N-[(S)-2-(3,4-Dichlorophenyl)-4-[4-[(S)-2-methylsulfinylphenyl]-1-piperidinyl]butyl]-N-methyl-3-cyano-1-naphthamide] |  | 32.5 (2 hr) | 5.5 | 1.02 | 21.4 (2 hr) |  |  |
| COc1ccc(C2CCN(CC[C@H](CN(C)C(=O)c3cc(C#N)cc4ccccc34)c3ccc(Cl)c(Cl)c3)CC2)c([S@+](C)[O-])c1.O=C(O)CC(O)(CC(=O)O)C(=O)O [Example 2, N-[(S)-2-(3,4-Dichlorophenyl)-4-[4-{4-methoxy-(S)-2-methylsulfinylphenyl}-1-piperidinyl]butyl]-N-methyl-3-cyano-1-naphthamide Citrate] |  | 25.0 (2 hr) | 2 | 7.94 | 83.0 (2 hr) |  |  |
| CN(C[C@@H](CCN1CCC(N2CCCNC2=O)CC1)c1ccc(Cl)c(Cl)c1)C(=O)c1cc(C#N)cc2ccccc12 [Example 36, N-[(S)-2-(3,4-Dichlorophenyl)-4-[4-[tetrahydro-2-oxo-1(2H)-pyrimidinyl]-1-piperidinyl]-butyl]-N-methyl-3-cyano-1-naphthamide Citrate Hydrate (1:1:1.5)] |  |  | 13.8 | 7.41 |  | 45.0 (1 hr) | 20.6 (1 hr) |
| CCN(C[C@@H](CCN1CCC(c2ccccc2[S@+](C)[O-])CC1)c1ccc(Cl)c(Cl)c1)C(=O)c1cc(C#N)cc2ccccc12 [Example 69, N-[(S)-2-(3,4-Dichlorophenyl)-4-[4-[(S)-2-methylsulfinylphenyl]-1-piperidinyl]butyl]-N-ethyl-3-cyano-1-naphthamide] | 115 to 118 °C (dec.) |  |  |  |  |  |  |
